Measurements taken from patent US20260337231A1, “METHOD FOR PRODUCING CYCLIC PEPTIDE COMPOUND” (CHUGAI SEIYAKU KABUSHIKI KAISHA, priority 2023, published 2026).

Key:
[1] = Crystal form after drying under reduced pressure (powder X-ray diffraction); type: physicochemical
Method: The amorphous powder of Compound 1 (10.7 mg) was dissolved in 2-propanol (32.1 μL), and about 0.1 mg of the crystal obtained in Example 3-1 was added. Thereafter, heptane ([…]) was added, and the mixture was shaken at room temperature for 3 hours. Furthermore, heptane (21.4 μL) was added, and after shaking at room temperature for 2 hours, heptane (21.4 μL) was added and the mixture was shaken at room temperature for 3 hours. Heptane (21.4 μL) was further added, and the mixture was shaken at room temperature for 15 hours, thereby obtaining a crystal (form E) of compound 1. Single crystal X-ray structural analysis was performed on the obtained crystal (Example 4-8), and it was confirmed to be a 2-propanol/heptane/water solvate. […] The obtained crystal (form E) was dried under reduced pressure, and powder X-ray diffraction measurement was performed (Example 4-3).
The amorphous powder of Compound 1 (9.0 mg) was dissolved in ethanol (27.0 μL), heptane (27.0 μL) was added, and the mixture was shaken at room temperature for 4 minutes. About 0.1 mg of the crystal obtained in Example 3-4 was added, and the mixture was shaken at room temperature for 1 minute to obtain a crystal of compound 1. Single crystal X-ray structural analysis was performed (Example 4-9), confirming that the obtained crystal is an ethanol/water solvate crystal (form H). […] The obtained crystal (form H) was dried under reduced pressure, and powder X-ray diffraction measurement was performed (Example 4-3).
The amorphous powder of Compound 1 (10.9 mg) was dissolved in ethyl acetate (32.7 μL), heptane (32.7 μL) was added, and the mixture was shaken at room temperature for 4 minutes. About 0.1 mg of the crystal obtained in Example 3-5 was added, and the mixture was shaken at room temperature for 1 minute, thereby obtaining a crystal of compound 1. Single crystal X-ray structural analysis was performed (Example 4-9), confirming that the obtained crystal is an ethyl acetate/water solvate crystal (form C). […] The obtained crystal (form C) was dried under reduced pressure, and powder X-ray diffraction measurement was performed (Example 4-3).
The crystal (form A, 6.8 mg) of compound 1 obtained in Example 3-8 was dissolved in dimethyl sulfoxide (0.12 mL), and the mixture was shaken and stirred at room temperature for 13 days. Furthermore, water (1 μL) was added and the mixture was stirred at room temperature for 34 days to obtain a crystal of compound 1. The obtained crystal was confirmed to be a dimethyl sulfoxide/water solvate crystal (form L) by single crystal X-ray structural analysis (Example 4-8). […] Powder X-ray diffraction measurement (Example 4-3) on the crystal obtained by performing the same procedure confirmed that the form L is a solvate crystal that is amorphized by drying under reduced pressure.
To the crystal (form B, 45.8 mg) of compound 1, propylene glycol (0.12 mL) was added, and the mixture was stirred at room temperature for 5 minutes. Furthermore, propylene glycol (0.020 mL) was added, and the mixture was stirred at 40° C. for 5 minutes. Thereafter, propylene glycol (0.070 mL) was added, the mixture was stirred at 40° C. for 5 minutes and further allowed to stand still for 5 hours. Propylene glycol (0.070 mL) was further added, and the mixture was stirred at 35° C. for overnight. Then, propylene glycol (0.070 mL) was added and the mixture was stirred for about 1 minute to obtain a wet powder of compound 1. […]

[2] = Thermogravimetry-differential thermal analysis (TG-DTA); type: physicochemical; conditions: 10° C./min, nitrogen, at 157° C., Example 3-17
Method: The thermogravimetry-differential thermal analysis (TG-DTA) for Example 3-8, Example 3-9, Example 3-12, Example 3-13, Example 3-17, and Example 3-19 was performed under the following conditions. • Measurement apparatus: STA7200RV+AS-3T (manufactured by Hitachi High-Tech Science Corporation) • Measurement range: 30 to 350° C. • Heating rate: 10° C./min • Atmosphere: nitrogen • Measurement: The sample was weighed in an open aluminum pan and covered with a mesh to perform the measurement.

Row | SMILES | transformation after drying under reduced pressure ([1]; drying under reduced pressure) | also measured
1 | CCC[C@H]1C(=O)N[C@@H]([C@@H](C)CC)C(=O)N2CCC[C@H]2C(=O)N(C)[C@H]2C/C=C\CCN(C2=O)[C@@H](Cc2ccc(C(F)(F)F)cc2)C(=O)N(C)CC(=O)N[C@@H](CCc2ccc(C(F)(F)F)c(OC)c2)C(=O)N2C[C@H](OCC)C[C@H]2C(=O)N(C)C2(CCC2)C(=O)N(C)[C@@H](C2CCCC2)C(=O)N(C)[C@H](C(=O)N(C)C)CC(=O)N1C [form C] | transformed into the hydrate crystal (form B) | 
2 | CCC[C@H]1C(=O)N[C@@H]([C@@H](C)CC)C(=O)N2CCC[C@H]2C(=O)N(C)[C@H]2C/C=C\CCN(C2=O)[C@@H](Cc2ccc(C(F)(F)F)cc2)C(=O)N(C)CC(=O)N[C@@H](CCc2ccc(C(F)(F)F)c(OC)c2)C(=O)N2C[C@H](OCC)C[C@H]2C(=O)N(C)C2(CCC2)C(=O)N(C)[C@@H](C2CCCC2)C(=O)N(C)[C@H](C(=O)N(C)C)CC(=O)N1C [form E] | transformed into the hydrate crystal (form A) | 
3 | CCC[C@H]1C(=O)N[C@@H]([C@@H](C)CC)C(=O)N2CCC[C@H]2C(=O)N(C)[C@H]2C/C=C\CCN(C2=O)[C@@H](Cc2ccc(C(F)(F)F)cc2)C(=O)N(C)CC(=O)N[C@@H](CCc2ccc(C(F)(F)F)c(OC)c2)C(=O)N2C[C@H](OCC)C[C@H]2C(=O)N(C)C2(CCC2)C(=O)N(C)[C@@H](C2CCCC2)C(=O)N(C)[C@H](C(=O)N(C)C)CC(=O)N1C [form H] | transformed into the hydrate crystal (form B) | 
4 | CCC[C@H]1C(=O)N[C@@H]([C@@H](C)CC)C(=O)N2CCC[C@H]2C(=O)N(C)[C@H]2C/C=C\CCN(C2=O)[C@@H](Cc2ccc(C(F)(F)F)cc2)C(=O)N(C)CC(=O)N[C@@H](CCc2ccc(C(F)(F)F)c(OC)c2)C(=O)N2C[C@H](OCC)C[C@H]2C(=O)N(C)C2(CCC2)C(=O)N(C)[C@@H](C2CCCC2)C(=O)N(C)[C@H](C(=O)N(C)C)CC(=O)N1C [form L] | amorphized | 
5 | CCC[C@H]1C(=O)N[C@@H]([C@@H](C)CC)C(=O)N2CCC[C@H]2C(=O)N(C)[C@H]2C/C=C\CCN(C2=O)[C@@H](Cc2ccc(C(F)(F)F)cc2)C(=O)N(C)CC(=O)N[C@@H](CCc2ccc(C(F)(F)F)c(OC)c2)C(=O)N2C[C@H](OCC)C[C@H]2C(=O)N(C)C2(CCC2)C(=O)N(C)[C@@H](C2CCCC2)C(=O)N(C)[C@H](C(=O)N(C)C)CC(=O)N1C [form M] |  | transformation after drying under reduced pressure ([1]; dried under reduced pressure at room temperature for overnight): transformed into a form N crystal
6 | CCC[C@H]1C(=O)N[C@@H]([C@@H](C)CC)C(=O)N2CCC[C@H]2C(=O)N(C)[C@H]2C/C=C\CCN(C2=O)[C@@H](Cc2ccc(C(F)(F)F)cc2)C(=O)N(C)CC(=O)N[C@@H](CCc2ccc(C(F)(F)F)c(OC)c2)C(=O)N2C[C@H](OCC)C[C@H]2C(=O)N(C)C2(CCC2)C(=O)N(C)[C@@H](C2CCCC2)C(=O)N(C)[C@H](C(=O)N(C)C)CC(=O)N1C [form N] |  | weight reduction [2]: about 11%
